Where two headings read alike, the source gives them in different places.
Key:
human Nav1.7 channels = molecular target: T1, human Nav1.7 channels (Homo sapiens, UniProt Q15858); assay: FRET Assay (Method A), human Nav1.7; format: cell-based
T1 construct: expressed in transfected cells; host or cells: CHO
Procedure: (§1) The ability of the aryl substituted carboxamid derivatives of the formula (I) to inhibit the NaV1.3, Nav1.7 and Nav1.5 channels was measured by Fluorescence Resonance Energy Transfer (FRET) assay and electrophysiology assay described below.
(§2) This screen was used to determine the effects of compounds on human NaV1.3, human Nav1.7, and human Nav1.5 channels, utilising the cell imaging technology by Hamamatsu Photonics's Functional Drug Screening System (FDSS). The change of membrane potential was monitored with fluorescent membrane potential dye pair, oxonol (DiSBAC2(3)) and coumarin (CC2-DMPE), using FRET technology.
CHO cells expressing human NaV1.7 channels were grown in T225 flasks, in a 5% CO2 humidified incubator to about 80% confluence. Media composition consisted of HAM/F12 with Glutamax I, 10% FCS, 100 units/ml Penicillin and 100 microgram/ml Hygromycin.
Protocol: • Seeded each cell lines (1.5×10^4 cells/well) into poly-D-lysine coated 384-well plates prior to experimentation. • Incubated at 37° C. in 5% CO2 for 24 hours. • Washed each well with buffer #1 (140 mM NaCl, 4.5 mM KCl, 10 mM D-Glucose, 2 mM CaCl2, 1 mM MgCl2, 10 mM HEPES, pH 7.4 adjusted with NaOH) twice. • Added 1st loading solution containing 5 microM CC2-DMPE and 0.02% Pluronic F-127 in buffer #1. • Incubated the plate at room temperature in dark for 0.5 hours. • Washed each well with buffer #2 (160 mM Choline, 10 mM D-Glucose, 0.1 mM CaCl2, 1 mM MgCl2, 10 mM HEPES, pH 7.4 adjusted with KOH) twice. • Added 2nd loading solution containing 15 microM DiSBAC2(3), 0.5 mM VABSC-1, 10 microM veratridine and 0.004% Pluronic F-127 in buffer #2. • Added compound solutions into the assay plate for 30 minutes under the dark at room temperature. • Measured the activity by FDSS.
(§3) The data were analyzed and reported as normalized ratios of intensities measured in the 465 nm and 575 nm channels. […]
(§4) “FI465B”=the mean of fluorescence intensity as baseline (before Na+ ligand addition) at 465 nm
“FI575B”=the mean of fluorescence intensity as baseline (before Na+ ligand addition) at 575 nm […]

Human HERG = molecular target: T2, Human HERG (Homo sapiens, UniProt Q12809); assay: Human dofetilide binding assay
T2 construct: expressed in transfected cells; host or cells: HEK293S (membrane homogenate)
T2 sequence (Q12809 whole entry): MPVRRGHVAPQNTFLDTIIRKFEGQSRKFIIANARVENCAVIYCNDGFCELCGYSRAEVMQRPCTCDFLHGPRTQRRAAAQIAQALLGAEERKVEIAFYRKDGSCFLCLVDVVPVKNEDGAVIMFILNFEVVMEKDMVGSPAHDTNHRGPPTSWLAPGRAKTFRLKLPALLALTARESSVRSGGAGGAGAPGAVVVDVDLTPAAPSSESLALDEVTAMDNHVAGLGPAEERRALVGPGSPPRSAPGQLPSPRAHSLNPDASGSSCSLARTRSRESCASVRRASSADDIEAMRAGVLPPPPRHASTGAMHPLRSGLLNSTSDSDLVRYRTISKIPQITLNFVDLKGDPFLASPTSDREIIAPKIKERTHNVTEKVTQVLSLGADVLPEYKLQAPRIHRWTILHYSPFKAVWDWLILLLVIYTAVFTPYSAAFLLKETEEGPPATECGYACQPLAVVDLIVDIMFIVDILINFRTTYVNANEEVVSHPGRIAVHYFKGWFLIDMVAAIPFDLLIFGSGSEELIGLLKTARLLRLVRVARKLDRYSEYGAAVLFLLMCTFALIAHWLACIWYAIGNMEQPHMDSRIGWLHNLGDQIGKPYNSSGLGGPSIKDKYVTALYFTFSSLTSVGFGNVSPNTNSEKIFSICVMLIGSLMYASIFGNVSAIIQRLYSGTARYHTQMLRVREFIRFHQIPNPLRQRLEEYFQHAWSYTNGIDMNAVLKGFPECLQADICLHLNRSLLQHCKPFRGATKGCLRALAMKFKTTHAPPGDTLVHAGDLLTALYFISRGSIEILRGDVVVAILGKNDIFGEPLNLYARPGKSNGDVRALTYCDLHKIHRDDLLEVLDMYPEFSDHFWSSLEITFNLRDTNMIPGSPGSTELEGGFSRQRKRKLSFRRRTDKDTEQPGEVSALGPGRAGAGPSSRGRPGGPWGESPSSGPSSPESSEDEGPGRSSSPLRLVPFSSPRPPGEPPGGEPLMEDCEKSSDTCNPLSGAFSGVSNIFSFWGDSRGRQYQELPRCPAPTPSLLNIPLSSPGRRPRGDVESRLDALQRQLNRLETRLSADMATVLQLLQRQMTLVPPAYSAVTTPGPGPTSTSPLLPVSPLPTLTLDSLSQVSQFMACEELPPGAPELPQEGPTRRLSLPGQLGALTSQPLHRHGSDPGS
Procedure: Human Dofetilide Binding Assay
Human HERG transfected HEK293S cells were prepared and grown in-house. The collected cells were suspended in 50 mM Tris-HCl (pH 7.4 at 4° C.) and homogenized using a hand held Polytron PT 1200 disruptor set at full power for 20 sec on ice. The homogenates were centrifuged at 48,000×g at 4° C. for 20 min. The pellets were then resuspended, homogenized, and centrifuged once more in the same manner. The final pellets were resuspended in an appropriate volume of 50 mM Tris-HCl, 10 mM KCl, 1 mM MgCl2 (pH 7.4 at 4° C.), homogenized, aliquoted and stored at −80° C. until use. An aliquot of membrane fractions was used for protein concentration determination using BCA protein assay kit (PIERCE) and ARVOsx plate reader (Wallac). Binding assays were conducted in a total volume of 30 microL in 384-well plates. The activity was measured by PHERAstar (BMG LABTECH) using fluorescence polarization technology. Ten microL of test compounds were incubated with 10 microL of fluorescence ligand (6 nM Cy3B tagged dofetilide derivative) and 10 microL of membrane homogenate (6 microg protein) for 120 minutes at room temperature. Nonspecific binding was determined by 10 microM E4031 at the final concentration.

human NaV1.3 channels = molecular target: T3, human NaV1.3 channels (Homo sapiens, UniProt Q9NY46); assay: FRET Assay (Method A), human NaV1.3; format: cell-based; settings: read-out: against Nav1.3 in FRET Assay (Method A)
T3 construct: expressed in transfected cells; host or cells: HEK293
T3 sequence (Q9NY46 whole entry): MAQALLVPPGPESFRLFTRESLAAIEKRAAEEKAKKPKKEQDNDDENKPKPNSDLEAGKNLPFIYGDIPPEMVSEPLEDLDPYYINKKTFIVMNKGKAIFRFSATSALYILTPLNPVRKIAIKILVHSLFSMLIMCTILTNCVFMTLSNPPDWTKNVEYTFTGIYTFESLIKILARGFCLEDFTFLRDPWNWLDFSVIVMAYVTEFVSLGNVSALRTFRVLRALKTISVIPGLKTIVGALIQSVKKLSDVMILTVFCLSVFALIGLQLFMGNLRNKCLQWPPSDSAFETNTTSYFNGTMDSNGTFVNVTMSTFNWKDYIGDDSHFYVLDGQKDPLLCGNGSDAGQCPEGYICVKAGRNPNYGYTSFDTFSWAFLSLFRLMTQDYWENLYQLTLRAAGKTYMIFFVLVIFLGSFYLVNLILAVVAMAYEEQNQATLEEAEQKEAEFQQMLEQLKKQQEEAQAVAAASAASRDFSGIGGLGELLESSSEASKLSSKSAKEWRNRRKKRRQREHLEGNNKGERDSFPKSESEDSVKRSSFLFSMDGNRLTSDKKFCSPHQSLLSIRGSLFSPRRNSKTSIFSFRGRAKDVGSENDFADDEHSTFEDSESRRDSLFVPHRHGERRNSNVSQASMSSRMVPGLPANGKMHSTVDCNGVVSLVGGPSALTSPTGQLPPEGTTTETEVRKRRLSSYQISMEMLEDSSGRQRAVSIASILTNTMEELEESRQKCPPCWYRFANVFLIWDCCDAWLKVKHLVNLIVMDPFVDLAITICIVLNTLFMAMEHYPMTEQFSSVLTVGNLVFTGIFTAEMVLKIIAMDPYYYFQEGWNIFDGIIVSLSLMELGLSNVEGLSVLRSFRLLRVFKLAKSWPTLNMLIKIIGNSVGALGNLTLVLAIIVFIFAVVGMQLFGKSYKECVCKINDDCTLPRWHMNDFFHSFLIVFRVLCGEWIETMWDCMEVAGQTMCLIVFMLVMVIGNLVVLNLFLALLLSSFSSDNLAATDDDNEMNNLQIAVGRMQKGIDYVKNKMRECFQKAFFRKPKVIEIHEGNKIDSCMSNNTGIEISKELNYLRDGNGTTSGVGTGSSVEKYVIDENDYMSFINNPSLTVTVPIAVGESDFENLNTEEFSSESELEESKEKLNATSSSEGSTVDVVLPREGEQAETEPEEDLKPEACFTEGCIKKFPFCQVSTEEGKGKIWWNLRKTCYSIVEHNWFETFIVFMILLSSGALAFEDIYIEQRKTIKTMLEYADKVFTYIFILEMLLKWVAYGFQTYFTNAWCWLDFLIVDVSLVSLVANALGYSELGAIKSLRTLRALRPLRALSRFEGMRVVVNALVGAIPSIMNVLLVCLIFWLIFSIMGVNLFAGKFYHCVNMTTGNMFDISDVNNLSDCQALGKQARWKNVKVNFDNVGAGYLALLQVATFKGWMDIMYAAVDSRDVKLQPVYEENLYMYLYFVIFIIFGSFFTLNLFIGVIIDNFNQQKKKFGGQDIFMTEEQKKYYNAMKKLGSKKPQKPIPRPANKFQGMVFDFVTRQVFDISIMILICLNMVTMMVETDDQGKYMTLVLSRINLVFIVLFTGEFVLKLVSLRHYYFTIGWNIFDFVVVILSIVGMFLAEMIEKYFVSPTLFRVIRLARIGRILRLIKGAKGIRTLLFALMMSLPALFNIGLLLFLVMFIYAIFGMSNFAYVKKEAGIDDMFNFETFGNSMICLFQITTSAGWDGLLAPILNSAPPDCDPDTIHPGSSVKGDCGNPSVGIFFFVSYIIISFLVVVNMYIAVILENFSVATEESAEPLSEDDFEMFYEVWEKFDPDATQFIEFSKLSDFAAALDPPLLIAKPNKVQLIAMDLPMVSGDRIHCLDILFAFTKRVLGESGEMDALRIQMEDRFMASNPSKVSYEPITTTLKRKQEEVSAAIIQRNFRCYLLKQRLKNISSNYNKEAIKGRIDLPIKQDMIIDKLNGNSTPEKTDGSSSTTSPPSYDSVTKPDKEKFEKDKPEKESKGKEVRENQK
Procedure: as §1
as §2, with “technology. […]” for “technology.”
as §3, §4
“FI575B”=the mean of fluorescence intensity as baseline (before Na+ ligand addition) at 575 nm
“FI465Max”=maximum fluorescence intensity at 465 nm after Na+ stimulation
“FI575 Min”=minimum fluorescence intensity at 575 nm after Na+ stimulation
This analysis was performed using a computerized specific program designed for FDSS generated data. Fluorescence ratio values were plotted using XLfit to determine an IC50 value for each compound.

[1] = Table 5, method A or B not stated, read-out: IC50 in the Nav1.7 FRET Assay

T1 sequence (Q15858 whole entry): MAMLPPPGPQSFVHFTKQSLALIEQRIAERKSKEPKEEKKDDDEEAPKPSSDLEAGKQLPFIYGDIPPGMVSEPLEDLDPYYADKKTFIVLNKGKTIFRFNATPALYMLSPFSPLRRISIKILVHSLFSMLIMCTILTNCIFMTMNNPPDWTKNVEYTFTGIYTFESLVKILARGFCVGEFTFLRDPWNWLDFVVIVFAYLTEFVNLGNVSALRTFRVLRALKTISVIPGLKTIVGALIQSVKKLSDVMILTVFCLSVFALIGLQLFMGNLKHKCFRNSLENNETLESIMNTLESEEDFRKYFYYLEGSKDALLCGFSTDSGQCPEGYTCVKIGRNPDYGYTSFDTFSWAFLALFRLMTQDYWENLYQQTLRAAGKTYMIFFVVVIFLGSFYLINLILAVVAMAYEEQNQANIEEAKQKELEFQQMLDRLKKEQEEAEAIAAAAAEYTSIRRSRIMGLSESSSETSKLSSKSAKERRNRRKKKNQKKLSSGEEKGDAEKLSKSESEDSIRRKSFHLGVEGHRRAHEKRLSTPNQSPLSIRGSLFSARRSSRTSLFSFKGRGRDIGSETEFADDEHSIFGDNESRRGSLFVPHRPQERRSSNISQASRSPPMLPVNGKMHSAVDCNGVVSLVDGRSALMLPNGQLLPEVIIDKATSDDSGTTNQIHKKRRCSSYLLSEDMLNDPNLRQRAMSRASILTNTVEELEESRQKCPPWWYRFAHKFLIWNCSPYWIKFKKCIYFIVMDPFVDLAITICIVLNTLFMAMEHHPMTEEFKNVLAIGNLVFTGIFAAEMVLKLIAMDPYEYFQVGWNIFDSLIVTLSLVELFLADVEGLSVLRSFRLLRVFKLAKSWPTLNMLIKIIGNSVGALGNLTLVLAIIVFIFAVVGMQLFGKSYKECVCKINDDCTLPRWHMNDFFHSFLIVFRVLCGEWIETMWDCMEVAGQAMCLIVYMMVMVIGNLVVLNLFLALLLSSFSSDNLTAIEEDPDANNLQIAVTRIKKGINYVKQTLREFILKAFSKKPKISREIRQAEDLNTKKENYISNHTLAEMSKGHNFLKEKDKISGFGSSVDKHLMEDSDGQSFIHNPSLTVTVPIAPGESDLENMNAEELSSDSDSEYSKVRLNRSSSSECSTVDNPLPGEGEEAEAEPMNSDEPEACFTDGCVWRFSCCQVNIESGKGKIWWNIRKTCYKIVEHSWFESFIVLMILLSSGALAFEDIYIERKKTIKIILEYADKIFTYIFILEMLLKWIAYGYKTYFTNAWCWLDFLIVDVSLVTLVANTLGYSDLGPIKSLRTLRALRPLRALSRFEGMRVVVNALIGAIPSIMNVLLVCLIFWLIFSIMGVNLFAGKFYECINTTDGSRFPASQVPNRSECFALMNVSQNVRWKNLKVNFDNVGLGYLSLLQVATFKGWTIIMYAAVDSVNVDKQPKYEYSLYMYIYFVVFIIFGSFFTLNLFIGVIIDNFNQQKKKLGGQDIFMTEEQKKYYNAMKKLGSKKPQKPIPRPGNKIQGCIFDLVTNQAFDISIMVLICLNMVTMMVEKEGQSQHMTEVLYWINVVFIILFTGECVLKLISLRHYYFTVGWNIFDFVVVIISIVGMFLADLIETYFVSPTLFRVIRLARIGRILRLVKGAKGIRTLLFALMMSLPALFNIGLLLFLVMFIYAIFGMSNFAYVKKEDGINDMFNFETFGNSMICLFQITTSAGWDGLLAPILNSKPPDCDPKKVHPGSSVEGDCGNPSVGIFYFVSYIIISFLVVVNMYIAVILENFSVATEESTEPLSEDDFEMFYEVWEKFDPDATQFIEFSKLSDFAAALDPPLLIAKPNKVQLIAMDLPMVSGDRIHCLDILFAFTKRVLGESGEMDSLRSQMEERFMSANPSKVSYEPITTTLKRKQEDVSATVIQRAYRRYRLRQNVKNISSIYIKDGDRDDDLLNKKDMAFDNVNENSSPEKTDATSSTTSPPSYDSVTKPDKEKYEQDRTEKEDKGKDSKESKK

| Compound | IC50 (human Nav1.7 channels; [1]) [nM] | IC50 (Human HERG) [nM] | IC50 (human NaV1.3 channels) [nM] | IC50 (human Nav1.7 channels; read-out: against Nav1.7 in FRET Assay (Method A)) [nM] |
| --- | --- | --- | --- | --- |
| Clc1ccc(OC2CCN(Cc3cnc4ccccc4c3)CC2)cc1 [Example 726] | 470 | 280 | – | – |
| O=c1[nH]ccnc1CN1CCC(COc2ccccc2)CC1 [Example 198 in WO 2003/084948, 3-((4-(phenoxymethyl)piperidin-1-yl)methyl)pyrazin-2(1H)-one, reference compound] | – | – | > 30000 | 15000 |
| O=C(c1cnc2ccccc2c1)N1CCC(Oc2ccc(Cl)cc2)CC1 [Example 10, (4-(4-chlorophenoxy)piperidin-1-yl)(quinolin-3-yl) methanone] | 360 | 7910 | – | – |
